According to article PMC9963659, “Novel 2-Thiouracil-5-Sulfonamide Derivatives: Design, Synthesis, Molecular Docking, and Biological Evaluation as Antioxidants with 15-LOX Inhibition” (Molecules, 2023):
Where two headings read alike, the source gives them in different places.

Assays:
[1] = DPPH radical scavenging assay; type: biochemical; conditions: mean ± SEM of three experiments
Experimental: The antioxidant potential of all target compounds (3–9) was determined using DPPH radical scavenging assay in comparison with ascorbic acid (AA) as the control treatment.
The mechanism of antioxidants as DPPH radical scavengers is based on their hydrogen-donation ability as hydrogen atoms or an electron transfer from the compound to the DPPH to form DPPH-H. The results of DPPH reduction are presented in Table 2, Figure 7.
The DPPH scavenging activity of all novel synthesized compounds (3–9) was measured as previously described (see Supplementary Materials).
1-Biological Evaluation Details: a-In-vitro Assays for biological antioxidant Activity
- DPPH scavenging method.
A 96-well plate was filled with 100 µL of the investigated compounds at various concentrations (12.5, 25, 50, 100, and 200 µg/mL ). The plate was then incubated at room temperature for 30 min while being protected from light by adding 100 µL of 100µM DPPH methanolic solution to each well. At a λ517 nm. the solution's absorbance was measured.
The positive control was ascorbic acid, and the negative control was DMSO. According to the following equation, the percentage of DPPH scavenging activity was determined:
% of DPPH scavenging = [(A control -A sample) / A control] x100. where A control is the absorbance of the control reaction (with all reagents except the test compound), and A sample is the absorbance of the test sample. Linear regression analysis was performed to calculate drug concentration showing 50% free radical inhibition activity (IC50). All tests were performed in triplicates. […]

[2] = Hydrogen peroxide scavenging assay; type: biochemical; conditions: mean ± SEM of three experiments
Experimental: H2O2 assay is used to estimate the scavenging power of the target compounds (4–9) to H2O2.
The hydrogen peroxide (H2O2) scavenging activity of all novel synthesized compounds 3–9 was measured as previously reported (see Supplementary Materials).
1-Biological Evaluation Details: a-In-vitro Assays for biological antioxidant Activity […]
Linear regression analysis was performed to calculate drug concentration showing 50% free radical inhibition activity (IC50). All tests were performed in triplicates.
-Scavenging of hydrogen peroxide
In this method, the decay or loss of hydrogen peroxide can be quantified spectrophotometrically at 230 nm when a scavenger is incubated with it. The procedure was applied with a few changes. In phosphate buffered saline, hydrogen […]
peroxide (20 mM) solution was prepared in phosphate buffered saline (PBS, pH 7.4). In order to make different concentrations of 1 ml of the tested substances (3–9) or standards in methanol, 2 ml of hydrogen peroxide solution in PBS was added. After 10 minutes, the absorbance of H2O2 was measured at 230 nm in comparison to an ascorbic acid (AA) reference solution that contained phosphate buffer but no H2O2.
% of H2O2 scavenging = [(A control -A sample) / A control] x100. […]

[3] = Lipid peroxidation assay (FeCl2/H2O2-stimulated linoleic acid peroxidation); type: biochemical; conditions: mean ± SEM of three experiments
Soybean 15-LOX enzyme = biological target: T1, Soybean 15-LOX enzyme (Glycine max, UniProt P08170); experiment: In vitro 15-lipoxygenase inhibition (Cayman Lipoxygenase Inhibitor Screening Assay Kit); type: biochemical; conditions: for IC50: Soybean 15-LOX, arachidonic acid substrate, mean ± SEM of three experiments; for 15-LOX inhibitory activity relative to quercetin: fold that of quercetin
T1 construct: purchased Cayman Chemical 760700
T1 sequence (P08170 1-839): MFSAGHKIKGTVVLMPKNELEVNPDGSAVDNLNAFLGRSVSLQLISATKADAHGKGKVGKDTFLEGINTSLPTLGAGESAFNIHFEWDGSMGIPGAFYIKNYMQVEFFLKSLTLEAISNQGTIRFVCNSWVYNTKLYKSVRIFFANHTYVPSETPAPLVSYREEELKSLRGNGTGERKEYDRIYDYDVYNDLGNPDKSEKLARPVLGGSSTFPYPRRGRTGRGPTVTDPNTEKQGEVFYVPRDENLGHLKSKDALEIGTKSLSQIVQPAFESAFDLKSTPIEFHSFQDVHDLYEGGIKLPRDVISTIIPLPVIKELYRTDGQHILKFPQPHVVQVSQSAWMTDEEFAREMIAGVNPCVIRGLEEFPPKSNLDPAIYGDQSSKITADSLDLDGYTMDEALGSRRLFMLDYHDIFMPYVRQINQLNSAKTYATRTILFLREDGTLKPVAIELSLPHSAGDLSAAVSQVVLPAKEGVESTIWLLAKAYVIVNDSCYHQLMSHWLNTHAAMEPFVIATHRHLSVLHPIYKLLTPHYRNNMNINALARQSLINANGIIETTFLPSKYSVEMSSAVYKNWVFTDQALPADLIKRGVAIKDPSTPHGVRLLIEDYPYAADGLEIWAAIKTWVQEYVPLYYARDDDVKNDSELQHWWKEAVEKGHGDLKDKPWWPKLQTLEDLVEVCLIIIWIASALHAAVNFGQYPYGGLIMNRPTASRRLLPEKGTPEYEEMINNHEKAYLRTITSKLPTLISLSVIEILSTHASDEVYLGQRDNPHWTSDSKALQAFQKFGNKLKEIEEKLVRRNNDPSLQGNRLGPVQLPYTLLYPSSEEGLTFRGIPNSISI
Experimental: 90 µL of 15-LOX was pipetted into a 96-well plate quickly. The test chemical was then dissolved in DMSO in 10 µL portions at concentrations of 2.5 µM, 5.0 µM, and 10 µM and added to each well. Arachidonic acid, a 110 µL substrate, was added to start the reaction, and the plate was shaken for at least five minutes. In order to interrupt enzyme catalysis and advance the reaction, 100 µL of chromogen was added to each well and made in accordance with the manufacturer’s instructions. In blank wells, 100 µL of assay buffer (0.1 M Tris-HCl, pH 7.4) was utilized. […] The solution’s absorbance was determined at λ 490–500 nm. The percentage inhibition was calculated according to the following equation:% inhibition = [(IA − Ainhibitor sample)/IA] × 100(1) where (IA) is the 100% initial activity and (Ainhibitor sample) is the absorbance of the test sample. A dose-response curve was plotted between % inhibition and the drug concentration. The non-linear dose-response curve was used for calculating drug concentration showing 50% enzyme inhibition.

[4] = set-up: method as in PMID 23248677; conditions: cited from earlier work
human 15-LOX = conditions: cited from earlier work
15-LOX-1 [5] = test system: 15-LOX-1; set-up: method as in PMID 26560362; conditions: human; cited from earlier work
15-LOX-1 [6] = test system: 15-LOX-1; set-up: method as in PMID 26560362; conditions: cited from earlier work
15-LOX-1 [7] = test system: 15-LOX-1; set-up: method as in PMID 26560362; conditions: rabbit enzyme; cited from earlier work

## O=c1[nH]c(=S)[nH]cc1S(=O)(=O)Nc1cccc(-c2csc(NN=Cc3cccc([N+](=O)[O-])c3)n2)c1 [Compound 9a, N-(3-{2-[(2E)-2(3-nitrobenzylidene)hydrazine]-1,3-thiazol-4-yl}phenyl)-4-oxo-thioxo-1,2,3,4-tetrahydropyrimidine-5-sulfonamides]
[1]
  DPPH IC50: 15.0 ± 1.25 µg/mL
[2]
  H2O2 IC50: 20.0 ± 1.40 µg/mL
[3]
  Lipid Peroxidation IC50: 22.0 ± 1.40 µg/mL
Soybean 15-LOX enzyme
  IC50: 2900 ± 80 nM
other
  melting point: 316 to 318 °C

## O=c1[nH]c(=S)[nH]cc1S(=O)(=O)Nc1cccc(-c2csc(NN=Cc3cccc(Cl)c3)n2)c1 [Compound 9b, N-(3-{2-[(2E)-2(3-chlorobenzylidene)hydrazine]-1,3-thiazol-4-yl}phenyl)-4-oxo-thioxo-1,2,3,4-tetrahydropyrimidine-5-sulfonamides]
[1]
  DPPH IC50: 11.9 ± 1.40 µg/mL
[2]
  H2O2 IC50: 18.0 ± 0.72 µg/mL
[3]
  Lipid Peroxidation IC50: 21.0 ± 1.45 µg/mL
Soybean 15-LOX enzyme
  IC50: 1800 ± 60 nM
  15-LOX inhibitory activity relative to quercetin: 2.0 fold
other
  melting point: 320 to 322 °C

## O=c1[nH]c(=S)[nH]cc1S(=O)(=O)Nc1cccc(-c2csc(NN=Cc3cccc(F)c3)n2)c1 [Compound 9c, N-(3-{2-[(2E)-2(3-fluorobenzylidene)hydrazine]-1,3-thiazol-4-yl}phenyl)-4-oxo-thioxo-1,2,3,4-tetrahydropyrimidine-5-sulfonamides]
[1]
  DPPH IC50: 10.0 ± 0.83 µg/mL
[2]
  H2O2 IC50: 16.0 ± 1.20 µg/mL
[3]
  Lipid Peroxidation IC50: 20.5 ± 1.48 µg/mL
Soybean 15-LOX enzyme
  IC50: 1950 ± 60 nM
  15-LOX inhibitory activity relative to quercetin: 1.84 fold
other
  melting point: 317 to 319 °C

## Cc1cccc(C=NNc2nc(-c3cccc(NS(=O)(=O)c4c[nH]c(=S)[nH]c4=O)c3)cs2)c1 [Compound 9d, N-(3-{2-[(2E)-2(3-methylbenzylidene)hydrazine]-1,3-thiazol-4-yl}phenyl)-4-oxo-thioxo-1,2,3,4-tetrahydropyrimidine-5-sulfonamides]
[1]
  DPPH IC50: 7.55 ± 1.70 µg/mL
[2]
  H2O2 IC50: 15.0 ± 0.89 µg/mL
[3]
  Lipid Peroxidation IC50: 20.0 ± 1.56 µg/mL
Soybean 15-LOX enzyme
  IC50: 2500 ± 30 nM
other
  melting point: 326 to 328 °C

## CC1=C(C(=O)OC(C)C)C(c2ccco2)NC(=S)N1 (stereo not shown) [XII]
[4]
  antioxidant activity IC50: 600 µg/mL

## COc1ccc(-c2cc3cc(F)c(F)cc3[nH]2)cc1NS(=O)(=O)c1cccs1 [XIV]
Human 15-LOX; read-out: 15-LOX IC50
  IC50: 7 nM

## O=c1c2cnc(N3CCOCC3)nc2sn1CCN1CCCCC1 [XIX]
15-LOX-1 [5]
  IC50: 120 nM

## c1csc(C2CSC(c3nc4ccccc4[nH]3)=N2)c1 (stereo not shown) [XVIII]
15-LOX-1 [6]
  IC50: 96 nM

## COc1ccc(-c2cc3cc(F)c(F)cc3[nH]2)cc1NC(=S)Nc1cccc(C(=O)O)c1 [XVII]
15-LOX-1 [7]
  IC50: 2 nM

## O=S(=O)(Nc1cccc(-c2nc3cccnc3[nH]2)c1)c1cccs1 [XVI]
Human 15-LOX; read-out: 15-LOX IC50
  IC50: 10000 nM

## CCCCCc1ccc(S(=O)(=O)NCCc2nc(-c3ccccc3)[nH]c2-c2ccc(OC)cc2)cc1 [XV]
Human 15-LOX; AA, read-out: 15-LOX IC50 (AA)
  IC50: 50 nM
Human 15-LOX; LA, read-out: 15-LOX IC50 (LA)
  IC50: 17 nM

## O=C(O)c1cc(O)c(O)c(O)c1 [gallic acid]
[4]
  antioxidant activity IC50: 0.8 µg/mL
